Source: US6589996B2, “Treatment of disorders relating to the serotonergic system” (Orion Corporation, priority 2000, dated 2003)
Like-named read-outs stand apart in the source and are kept apart here.

What was measured:
withdrawal symptoms = assay: randomised placebo-controlled double-blind study in GAD: Physician's Withdrawal Checklist (PWC); type: in vivo, human
Method: (§1) The efficacy of deramciclane in the treatment of anxiety, specifically GAD, was studied in a randomised placebo-controlled double-blind study. In addition, the dosage-dependency of the effects of deramciclane was evaluated. A total of 208 patients were included in the study. The subjects were randomly assigned to four parallel groups to receive one tablet twice daily (b.i.d) of a placebo, 5 mg (=10 mg/day), 15 mg (=30 mg/day), or 30 mg (=60mg/day) deramciclane. The study started with a one-week placebo run-in period, followed by an eight-week placebo-controlled active treatment and a two-week placebo washout period.
After stopping the above-described 8-week treatment period, no discontinuation effects were seen (measured by the Physician's Withdrawal Checklist, PWC). This is different and surprising from the experiences with the most other efficacious drugs used for the treatment of anxiety.

mice [1] = settings: single subcutaneous administration, 3 mg/kg; cited from earlier work
depressive symptoms = assay: randomised placebo-controlled double-blind study in GAD: depressive symptoms (MADRS); type: in vivo, human
Method: as §1
The efficacy of deramciclane on depressive symptoms was studied using the Montgomery Asberg Depression Rating Scale (MADRS).

[2] = human, in vivo
Method: In a comparative pharmacokinetic study of orally administered deramciclane in rats, dogs, rabbits and humans (Klebovich et al Pharm. Pharmacol. Commun., 4:129-136, 1998), it was shown that the plasma concentration curves obtained after the administration of a single 3 mg/kg oral dose of deramciclane to rats (dogs, rabbits) and human show considerable species specific differences. […] Thus a 40-times lower oral dose of deramciclane could be used in man to result in the same maximal plasma concentration as in rat. […] Thus, over 300 times lower oral doses should result in equal exposure in humans than in rats. Basing only the Cmax difference between rat and man, it can be predicted that considerably lower doses should be centrally active in humans than in rat. The minimum oral effective anti-anxiety dose in rats was 1 mg/kg (1-30 mg/kg the full range; see above), i.e. in a 70 kg-man this would mean 70 mg dose. […] This would result in 70 mg/40=1.75 mg (i.e. 0.025 mg/kg) as an effective dose in man.

mice [3] = settings: oral doses 48-160 mg/kg; cited from earlier work
[4] = target: serotonin 5-HT2C-receptor (Homo sapiens, UniProt P28335); settings: cited from earlier work
serotonin 5-HT2C-receptor, sequence (P28335 33-458): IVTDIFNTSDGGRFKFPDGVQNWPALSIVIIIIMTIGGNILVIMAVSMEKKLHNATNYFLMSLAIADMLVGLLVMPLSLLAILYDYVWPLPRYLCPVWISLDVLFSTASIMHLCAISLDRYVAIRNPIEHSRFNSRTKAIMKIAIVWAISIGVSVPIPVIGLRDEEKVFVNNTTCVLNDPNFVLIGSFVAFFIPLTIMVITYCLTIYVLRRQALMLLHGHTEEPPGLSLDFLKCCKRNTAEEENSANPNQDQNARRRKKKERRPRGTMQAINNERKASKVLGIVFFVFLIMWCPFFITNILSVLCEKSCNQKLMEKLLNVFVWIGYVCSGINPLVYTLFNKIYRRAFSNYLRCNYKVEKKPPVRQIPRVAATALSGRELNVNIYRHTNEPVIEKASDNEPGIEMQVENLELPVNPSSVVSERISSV

serotonin 5HT2A-receptor = serotonin 5HT2A-receptor (Homo sapiens, UniProt P28223); settings: cited from earlier work
serotonin 5HT2A-receptor, sequence (P28223 whole entry): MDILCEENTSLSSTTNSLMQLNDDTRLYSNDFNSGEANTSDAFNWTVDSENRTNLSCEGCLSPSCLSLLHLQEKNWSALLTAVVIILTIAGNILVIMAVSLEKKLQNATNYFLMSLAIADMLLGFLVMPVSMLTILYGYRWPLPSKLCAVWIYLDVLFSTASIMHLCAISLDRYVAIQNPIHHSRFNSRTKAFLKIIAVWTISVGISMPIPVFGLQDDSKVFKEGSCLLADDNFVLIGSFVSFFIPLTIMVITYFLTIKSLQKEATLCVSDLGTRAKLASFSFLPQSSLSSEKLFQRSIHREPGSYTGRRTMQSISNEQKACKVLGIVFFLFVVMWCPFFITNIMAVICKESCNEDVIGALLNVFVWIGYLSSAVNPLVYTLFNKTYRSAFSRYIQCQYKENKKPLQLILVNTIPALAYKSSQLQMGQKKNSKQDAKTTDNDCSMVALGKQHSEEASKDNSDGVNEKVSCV

[5] = human, cited from earlier work; for Cmin and Cmax range: repeated administration for one week
[6] = target: T1, serotonin 5-HT2A-receptors in frontal cortex (Homo sapiens, UniProt P28223); settings: human brain, single oral dose; cited from earlier work
T1 construct: serotonin 5-HT2A-receptors in frontal cortex of healthy male volunteers; from tissue; host or cells: frontal cortex of living healthy male volunteers (in vivo)
T1 sequence (P28223 whole entry): as above

[7] = human, cited from earlier work
rats [8] = settings: single intraperitoneal administration; cited from earlier work
[9] = rats, 3 mg/kg, cited from earlier work
rats [10] = settings: intraperitoneally 1 or 10 mg/kg, 8 times, twice a day; cited from earlier work
rats [11] = settings: cited from earlier work
rats [12] = settings: oral doses of 25 and 100 mg/kg; cited from earlier work
[13] = test system: anxiety, specifically GAD; assay: randomised placebo-controlled double-blind study in GAD: anxiety symptoms (HAM-A, CGI); type: in vivo, human; settings: for CGI severity of illness: percentage of patients not ill or very mildly ill: after 8 weeks
Method: as §1
The efficacy of deramciclane on anxiety symptoms was studied by the efficacy variable Hamilton Anxiety Scale (HAM-A), analyzing the change in the score and using responder criterion (at least 50% reduction in HAM-A total score). The Clinical Global Impression (GCI) scale was also used for analyzing the efficacy of deramciclane on anxiety symptoms.

[14] = rat, single oral administration; cited from earlier work
rats [15] = settings: cited from earlier work; remark: listed apart in the source

CN(C)CCO[C@]1(c2ccccc2)C[C@H]2CC[C@]1(C)C2(C)C [deramciclane, (1R,2S,4R)-(−)-2-[N,N-(dimethylaminoethoxy)]-2-phenyl-1,7,7-trimethyl-bicyclo [2.2.1]heptane]
PWC value, Mean (SD) (withdrawal symptoms; 5 mg b.i.d., after 2 week wash-out): 9 (8)
PWC value, Mean (SD) (withdrawal symptoms; 5 mg b.i.d., after 8 week treatment): 9 (7)
PWC value, Mean (SD) (withdrawal symptoms; 15 mg b.i.d., after 2 week wash-out): 8 (7)
PWC value, Mean (SD) (withdrawal symptoms; 15 mg b.i.d., after 8 week treatment): 7 (8)
PWC value, Mean (SD) (withdrawal symptoms; 30 mg b.i.d., after 2 week wash-out): 8 (7)
PWC value, Mean (SD) (withdrawal symptoms; 30 mg b.i.d., after 8 week treatment): 8 (8)
withdrawal symptoms after abrupt discontinuation (withdrawal symptoms; after 8-week treatment): did not cause any withdrawal symptoms
activity in two compartment test (mice [1]): active
effect on MADRS score (depressive symptoms; 5 mg b.i.d): ineffective
MADRS score decrease (depressive symptoms; 15 mg b.i.d, p=0.028): 7.7 points
MADRS score decrease (depressive symptoms; 30 mg b.i.d, p=0.016): 8.0 points
factor by which oral dose in man is lower for the same maximal plasma concentration as in rat [2]: 40 times
factor by which oral dose is lower for equal exposure in humans than in rats ([2]; rat): over 300 times
effect on tetrabenazine-induced ptosis (mice [3]): negligible
antagonism of the receptor [4]: potent antagonist
binding affinity ([4]; in vitro): high affinity
antagonism of the receptor (serotonin 5HT2A-receptor): potent antagonist
binding affinity (serotonin 5HT2A-receptor; in vitro): high affinity
Cmin and Cmax range ([5]; 20 mg daily): 16 to 33 ng/mL
Cmin and Cmax range ([5]; 60 mg daily): 48 to 91 ng/mL
Cmax ([5]; single oral 20 mg): 24 ± 9.4 ng/mL
Cmax ([5]; single oral 30 mg): 27 ± 6.1 ng/mL
plasma concentration at 50% 5HT2A-receptor occupancy [6]: ~21 ng/mL
plasma concentration at 90% 5HT2A-receptor occupancy [6]: about 70 ng/ml
Cmax ([7]; single 3 mg/kg oral dose): 217.5 ng/mL
mean AUC 0-∞ ([7]; single oral administration): 3737.8 ng·h/mL
effect on social interaction time (rats [8]): enhanced the social interaction time
minimum effective dose (rats [8]): 0.7 mg/kg
radioactivity in organs including blood and the brain ([9]; intravenous administration): high radioactivity
radioactivity in organs, especially the brain ([9]; oral administration, compared with intravenous): substantially lower
effect on helpless behaviour induced by inescapable electric foot shocks (rats [10]): dose dependently attenuated helpless behaviour
minimum oral effective anti-anxiety dose (rats [11]; oral): 1 mg/kg
activity in punished drinking test (rats [11]; single oral administration, 1 mg/kg and 10 mg/kg): active
effect in forced swimming test (rats [12]): clearly ineffective
HAM-A score, difference from placebo ([13]; 5 mg b.i.d, 8 weeks): No difference
CGI severity of illness: percentage of patients not ill or very mildly ill ([13]; 5 mg b.i.d): 49%
responders (at least 50% reduction in HAM-A total score) ([13]; 5 mg b.i.d., n=31): 57%
HAM-A score decrease from baseline ([13]; 15 mg b.i.d, 8 weeks, p=0.006 vs placebo): 14.5 points
CGI severity of illness: percentage of patients not ill or very mildly ill ([13]; 15 mg b.i.d): 55%
responders (at least 50% reduction in HAM-A total score) ([13]; 15 mg b.i.d., n=39, p=0.020 vs placebo): 76%
CGI severity of illness: percentage of patients not ill or very mildly ill ([13]; 30 mg b.i.d, p=0.030): 61%
HAM-A score decrease from baseline ([13]; 30 mg b.i.d., 8 weeks, not significant vs placebo): 14.5 points
responders (at least 50% reduction in HAM-A total score) ([13]; 30 mg b.i.d., n=37): 70%
mean AUC 0-∞ [14]: 11.9 ng·h/mL
effect on caerulein-induced decrease in exploratory behavior (rats [15]; intraperitoneal dose of 0.5 mg/kg): able to attenuate
effect in elevated plus maze test (rats [15]; rats, single intraperitoneal doses 0.1 mg/kg-5 mg/kg): totally ineffective
